Each structure is given as a SMILES string. ≈ marks a conversion by molar mass, not a printed value. Where two headings read alike, the source gives them in different places.

As usually defined, the MIC is the smallest concentration in the dilution series that meets the test's criterion for growth inhibition. As a reminder, the IC50 is the concentration needed to halve the response being measured.

Experiment [1] relates to Escherichia coli EC-1: VOGEL, mouse virulent. The experiment in a line: MIC determination (CLSI), EC-1. In kind it is cell-based. Particulars: Escherichia coli, read-out: EC-1 (MIC). The procedure, abridged: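 Broth dilution MIC per CLSI M7-A8, with 2-fold compound dilutions incubated overnight with a standard inoculum. MIC is the lowest concentration visibly inhibiting growth versus drug-free control; tested in duplicate, reporting the lower value when within 2-fold, with QC organisms and reference compounds required in range.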

The test system of experiment [2] is Klebsiella pneumoniae: Ciprofloxacin-resistant isolate, expresses ESBL, clinical isolate (KP-3700). The experiment in a line: MIC determination (CLSI), KP-3700. Particulars: overnight incubation, lower of duplicate values. The format is cell-based. The procedure, abridged: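 Broth dilution MIC per CLSI M7-A8 against the ciprofloxacin-resistant, ESBL-expressing clinical isolate, 2-fold concentration steps, overnight incubation, visual read of lowest growth-inhibiting concentration. Tested in duplicate; lower value reported when within 2-fold; control organisms and reference compounds required within range.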

Experiment [3] concerns Pseudomonas aeruginosa UI-18: Wild-type (PA-7). In words: MIC determination (CLSI), PA-7. The format is cell-based. The following applies: Pseudomonas aeruginosa UI-18 wild-type; overnight incubation; lower of duplicate values; read-out: PA-7 (MIC). Summed up: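 Broth dilution MIC per CLSI M7-A8, using 2-fold compound dilutions incubated overnight; MIC is the lowest concentration with no visible growth versus the drug-free control. Run in duplicate, lower value reported when within 2-fold. Control organisms and reference compounds were included for QC.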

Experiment [4] concerns Acinetobacter baumannii/haemolyticus: Multidrug-resistant clinical isolate (AB-3167). The experiment in a line: MIC determination (CLSI), AB-3167. In kind it is cell-based. The following applies: Acinetobacter baumannii/haemolyticus multidrug-resistant clinical isolate; overnight incubation; lower of duplicate values; read-out: AB-3167 (MIC). Summed up:
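Broth dilution MIC per CLSI M7-A8, 2-fold concentration steps, overnight incubation, visual read of lowest concentration inhibiting growth versus drug-free control. Tested in duplicate; lower value reported if within 2-fold, otherwise repeated; QC organisms and reference drugs required within range.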

Experiment [5] deals with T1, Pseudomonas aeruginosa LpxC enzyme (Pseudomonas aeruginosa, UniProt P47205).
T1 construct: made in house; host or cells: E. coli
T1 sequence (P47205 1-303): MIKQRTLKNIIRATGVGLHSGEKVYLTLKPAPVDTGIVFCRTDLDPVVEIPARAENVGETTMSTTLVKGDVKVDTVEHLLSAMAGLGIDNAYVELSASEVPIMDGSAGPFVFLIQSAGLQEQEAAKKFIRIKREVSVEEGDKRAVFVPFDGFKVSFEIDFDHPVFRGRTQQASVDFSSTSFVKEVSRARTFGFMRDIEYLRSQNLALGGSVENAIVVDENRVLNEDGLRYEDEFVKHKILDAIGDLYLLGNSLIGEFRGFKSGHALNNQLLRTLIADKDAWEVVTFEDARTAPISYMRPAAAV
The experiment in a line: IC50 assay, LpxC enzyme from P. aeruginosa (BioTrove RapidFire mass spectrometry). In kind it is biochemical. The procedure, abridged:
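P. aeruginosa LpxC reaction run 1 hour, stopped with 1 N HCl, and substrate-to-product conversion quantified by RapidFire mass spectrometry. IC50 calculated from percent conversion using a no-enzyme control.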

Where [6] appears, read: P. aeruginosa LpxC enzyme 0.1 nM, 25° C., 1 hour, pH 8.0, read-out: PA: IC50.

Consider `C[C@@](CCn1cc(C2CCCC2)cn1)(C(=O)NO)S(C)(=O)=O` [Example 3, (2R)-4-(4-cyclopentyl-1H-pyrazol-1-yl)-N-hydroxy-2-methyl-2-(methylsulfonyl)butanamide], for which the MIC in experiment [1] amounted to 64 mg/L (≈ 194 µM); in experiment [3], 8 mg/L (≈ 24.3 µM); in experiment [4] it was 64 mg/L (≈ 194 µM). Besides, in experiment [2], the “KP-3700 (MIC)” value is 64 mg/L. Further, the IC50 in experiment [5] (setting [6]) came out at 0.0143 µM.

Regarding `CC(CCn1cc(COc2ccc(C(F)(F)F)cc2)nn1)(C(=O)NO)S(C)(=O)=O` (stereo not drawn) [Example 33, N-hydroxy-2-methyl-2-(methylsulfonyl)-4-(4-{[4-(trifluoromethyl)phenoxy]methyl}-1H-1,2,3-triazol-1-yl)butanamide], the MIC in experiment [1] was 64 mg/L (≈ 147 µM); in experiment [3], 32 mg/L (≈ 73.3 µM); in experiment [4], > 64 mg/L. Further, the “KP-3700 (MIC)” value in experiment [2] was >64.0 mg/L. Also, the half-inhibitory concentration (IC50) in experiment [5] (setting [6]) worked out at 0.0096 µM.

On to `CCOc1ccc(-c2cnn(CCC(C)(C(=O)NO)S(C)(=O)=O)c2)cc1C#N` (stereo not drawn) [Example 78, 4-[4-(3-cyano-4-ethoxyphenyl)-1H-pyrazol-1-yl]-N-hydroxy-2-methyl-2-(methylsulfonyl)butanamide], for which the values for the MIC in experiment [1], in experiment [3] and in experiment [4] were > 64 mg/L, 64 mg/L (≈ 157 µM) and > 64 mg/L, respectively. In addition, the “KP-3700 (MIC)” value in experiment [2] was >64.0 mg/L. In experiment [5] (setting [6]), the IC50 was 0.0217 µM.

For the molecule `CC(CCn1cc(-c2ccc(F)c(C#N)c2)cn1)(C(=O)NO)S(C)(=O)=O` (stereo not drawn) [Example 59, 4-[4-(3-cyano-4-fluorophenyl)-1H-pyrazol-1-yl]-N-hydroxy-2-methyl-2-(methylsulfonyl)butanamide], the MIC in experiment [1] is > 64 mg/L; in experiment [3], 64 mg/L (≈ 168 µM); in experiment [4], > 64 mg/L. Further, the “KP-3700 (MIC)” value in experiment [2] was >64.0 mg/L. Also, the concentration for half-maximal inhibition (IC50) in experiment [5] (setting [6]) was found to be 0.0116 µM.

Turning to `CC(CCn1cc(-c2ccc3cc[nH]c3n2)cn1)(C(=O)NO)S(C)(=O)=O` (stereo not drawn) [Example 57, N-hydroxy-2-methyl-2-(methylsulfonyl)-4-[4-(1H-pyrrolo[2,3-b]pyridin-6-yl)-1H-pyrazol-1-yl]butanamide], the figures for the minimal inhibitory concentration (MIC) in experiment [1], in experiment [3] and in experiment [4] were > 64 mg/L, 64 mg/L (≈ 170 µM) and > 64 mg/L, respectively. Also, the “KP-3700 (MIC)” value in experiment [2] was >64.0 mg/L. Besides, the IC50 in experiment [5] (setting [6]) was 0.00372 µM.

Take `CC(CCn1cc(CSc2cccc(Cl)c2)nn1)(C(=O)NO)S(C)(=O)=O` (stereo not drawn) [Example 27, 4-(4-{[(3-chlorophenyl)sulfanyl]methyl}-1H-1,2,3-triazol-1-yl)-N-hydroxy-2-methyl-2-(methylsulfonyl)butanamide]: the minimum inhibitory concentration (MIC) in experiment [1] is > 64 mg/L; in experiment [3] it was 64 mg/L (≈ 153 µM); in experiment [4], > 64 mg/L. Moreover, the “KP-3700 (MIC)” value in experiment [2] is >64.0 mg/L. Besides, the IC50 in experiment [5] (setting [6]) was found to be 0.0122 µM.

For the molecule `CC(CCn1cc(-c2ccc3c(c2)C(=O)CCC3)cn1)(C(=O)NO)S(C)(=O)=O` (stereo not drawn) [Example 75, N-hydroxy-2-methyl-2-(methylsulfonyl)-4-[4-(8-oxo-5,6,7,8-tetrahydronaphthalen-2-yl)-1H-pyrazol-1-yl]butanamide], the MIC in experiment [1] is > 64 mg/L; in experiment [3], 64 mg/L (≈ 158 µM); in experiment [4] it was > 64 mg/L. The “KP-3700 (MIC)” value in experiment [2] is >64.0 mg/L. Also, the 50% inhibitory concentration (IC50) in experiment [5] (setting [6]) turned out to be 0.00717 µM.

On to `CC(C)(C)c1cccc(OCc2cn(CCC(C)(C(=O)NO)S(C)(=O)=O)nn2)c1` (stereo not drawn) [Example 35, 4-{4-[(3-t-butylphenoxy)methyl]-1H-1,2,3-triazol-1-yl}-N-hydroxy-2-methyl-2-(methylsulfonyl)butanamide], for which the MIC in experiment [1], in experiment [3] and in experiment [4] was > 64 mg/L throughout. Further, in experiment [2], the “KP-3700 (MIC)” value is >64.0 mg/L. The IC50 in experiment [5] (setting [6]) is 0.024 µM.

For the molecule `CC(CCn1cc(-c2cccc(-c3ccno3)c2)cn1)(C(=O)NO)S(C)(=O)=O` (stereo not drawn) [Example 74, N-hydroxy-2-methyl-2-(methylsulfonyl)-4-{4-[3-(1,2-oxazol-5-yl)phenyl]-1H-pyrazol-1-yl}butanamide], the values for the MIC in experiment [1], in experiment [3] and in experiment [4] were > 64 mg/L, 32 mg/L (≈ 79.1 µM) and > 64 mg/L, respectively. The “KP-3700 (MIC)” value in experiment [2] was >64.0 mg/L. Besides, the IC50 in experiment [5] (setting [6]) amounted to 0.00245 µM.

For `CCc1ccccc1SCc1cn(CCC(C)(C(=O)NO)S(C)(=O)=O)nn1` (stereo not drawn) [Example 32, 4-(4-{[(2-ethylphenyl)sulfanyl]methyl}-1H-1,2,3-triazol-1-yl)-N-hydroxy-2-methyl-2-(methylsulfonyl)butanamide], the MIC in experiment [1], in experiment [3] and in experiment [4] was > 64 mg/L each time. The “KP-3700 (MIC)” value in experiment [2] is >64.0 mg/L. Further, the half-inhibitory concentration (IC50) in experiment [5] (setting [6]) came out at 0.0509 µM.

Regarding `CC(CCn1cc(-c2ccc3c(c2)OCCO3)cn1)(C(=O)NO)S(C)(=O)=O` (stereo not drawn) [Example 63, 4-[4-(2,3-dihydro-1,4-benzodioxin-6-yl)-1H-pyrazol-1-yl]-N-hydroxy-2-methyl-2-(methylsulfonyl)butanamide], the MIC in experiment [1] is > 64 mg/L; in experiment [3] it was 4 mg/L (≈ 10.1 µM); in experiment [4] it was > 64 mg/L. In addition, in experiment [2], the “KP-3700 (MIC)” value is >64.0 mg/L. Besides, in experiment [5] (setting [6]), the IC50 is 0.00675 µM.

In the case of `C[C@@](CCn1cc(C#Cc2cccc(C#N)c2)cn1)(C(=O)NO)S(C)(=O)=O` [Example 11, (2R)-4-{4-[(3-cyanophenyl)ethynyl]-1H-pyrazol-1-yl}-N-hydroxy-2-methyl-2-(methylsulfonyl)butanamide], the MIC in experiment [1] is 32 mg/L (≈ 82.8 µM); in experiment [3] it was 16 mg/L (≈ 41.4 µM); in experiment [4] it was > 64 mg/L. In addition, the “KP-3700 (MIC)” value in experiment [2] was 64 mg/L. The half-inhibitory concentration (IC50) in experiment [5] (setting [6]) was 0.0121 µM.

On to `C[C@@](CCn1cc(-c2cnc3ccccc3n2)cn1)(C(=O)NO)S(C)(=O)=O` [Example 9, (2R)—N-hydroxy-2-methyl-2-(methylsulfonyl)-4-[4-(quinoxalin-2-yl)-1H-pyrazol-1-yl]butanamide], for which the MIC in experiment [1], in experiment [3] and in experiment [4] was > 64 mg/L throughout. Moreover, the “KP-3700 (MIC)” value in experiment [2] is >64.0 mg/L. In experiment [5] (setting [6]), the IC50 turned out to be 0.019 µM.

`Cc1ccc(-c2cn(CCC(C)(C(=O)NO)S(C)(=O)=O)nn2)cc1` (stereo not drawn) [Example 37, N-hydroxy-2-methyl-4-[4-(4-methylphenyl)-1H-1,2,3-triazol-1-yl]-2-(methylsulfonyl)butanamide]: the values for the MIC in experiment [1], in experiment [3] and in experiment [4] were 16 mg/L (≈ 45.4 µM), 4 mg/L (≈ 11.4 µM) and > 64 mg/L, respectively. Moreover, the “KP-3700 (MIC)” value in experiment [2] was 64 mg/L. In experiment [5], this molecule yielded an IC50 of 0.00139 µM.

For `Cc1ccc2cc(-c3cnn(CCC(C)(C(=O)NO)S(C)(=O)=O)c3)ccc2n1` (stereo not drawn) [Example 67, N-hydroxy-2-methyl-4-[4-(2-methylquinolin-6-yl)-1H-pyrazol-1-yl]-2-(methylsulfonyl)butanamide], the minimum inhibitory concentration (MIC) in experiment [1] was > 64 mg/L; in experiment [3] it was 32 mg/L (≈ 79.5 µM); in experiment [4] it was > 64 mg/L. Also, the “KP-3700 (MIC)” value in experiment [2] is >64.0 mg/L. Further, the IC50 in experiment [5] (setting [6]) amounted to 0.0121 µM.

Consider `COc1cccc(-c2cnn(CCC(C)(C(=O)NO)S(C)(=O)=O)c2)c1` (stereo not drawn) [Example 51, N-hydroxy-4-[4-(3-methoxyphenyl)-1H-pyrazol-1-yl]-2-methyl-2-(methylsulfonyl)butanamide], for which the MIC in experiment [1] is > 64 mg/L; in experiment [3], 16 mg/L (≈ 43.5 µM); in experiment [4] it was > 64 mg/L. In addition, the “KP-3700 (MIC)” value in experiment [2] is >64.0 mg/L. For the same molecule, in experiment [5] (setting [6]), the half-inhibitory concentration (IC50) stood at 0.0073 µM.

As for `CC(CCn1cc(-c2ccccc2F)cn1)(C(=O)NO)S(C)(=O)=O` (stereo not drawn) [Example 45, 4-[4-(2-fluorophenyl)-1H-pyrazol-1-yl]-N-hydroxy-2-methyl-2-(methylsulfonyl)butanamide], the MIC in experiment [1] is 16 mg/L (≈ 45 µM); in experiment [3], 2 mg/L (≈ 5.63 µM); in experiment [4] it was > 64 mg/L. In addition, the “KP-3700 (MIC)” value in experiment [2] was determined as 64 mg/L. The IC50 in experiment [5] (setting [6]) was determined as 0.0025 µM.

For the molecule `CC(CCn1cc(-c2cccc(O)c2)cn1)(C(=O)NO)S(C)(=O)=O` (stereo not drawn) [Example 44, N-hydroxy-4-[4-(3-hydroxyphenyl)-1H-pyrazol-1-yl]-2-methyl-2-(methylsulfonyl)butanamide], the minimal inhibitory concentration (MIC) in experiment [1], in experiment [3] and in experiment [4] was > 64 mg/L each time. Moreover, the “KP-3700 (MIC)” value in experiment [2] was >64.0 mg/L. Besides, in experiment [5] (setting [6]), the IC50 is 0.0211 µM.

Values taken from patent US8809333B2, “Imidazole, pyrazole, and triazole derivatives useful as antibacterial agents” (Pfizer Inc., priority 2011, dated 2014).
